According to patent US5543530A, “4-arylisoindole analgesics” (Ortho Pharmaceutical Corporation, priority 1993, dated 1996):

Test system: Acetylcholine-Bromide Induced Abdominal Constriction
Assay: Mouse Acetylcholine Bromide-Induced Abdominal Constriction Assay
Assay type: in vivo
Details: @10 mpk/ko (so in the source)
Text: Mouse Acetylcholine Bromide-Induced Abdominal Constriction Assay
The mouse acetylcholine-induced abdominal constiction assay, as described by Collier et al. in Brit. J. Pharmacol. Chem. Ther., 32:295-310, 1968, with minor modifications was used to assess analgesic potency of the compounds of formula (I). […] The mice were then placed in groups of three into glass bell jars and observed for a ten minute observation period for the occurrence of an abdominal constriction response (defined as a wave of constriction and elongation passing caudally along the abdominal wall, accompanied by a twisting of the trunk and followed by extension of the hind limbs). The percent inhibition of this response to a nociceptive stimulus (equated to % analgesia) was calculated as follows: The % Inhibition of response, i.e., % analgesia is equal to the difference between the No. of control animals response and the No. of drug-treated animals response times 100 divided by the No. of control animals responding.
At least 15 animals were used for control and in each of the drug treated groups. At least three doses were used to determine each dose response curve and ED50 (that dose which would produce 50% analgesia). The ED50 values and their 95% fiducial limits were determined by a computer assisted probit analysis.

Question: For CN1C[C@@H]2CCC[C@@](O)(c3ccccc3)[C@@H]2C1 (single isomer, unassigned) [Cp-12, (-)-4β-Hydroxy-2-Methyl-4-Phenyl-3aα,7aα-Octahydroisoindole], which “% Inhibition” value is on record?
Answer: Its value is 90%.

Same assay, conditions: @10 mpk/po

Question: How did the “% Inhibition” value turn out when CN1C[C@@H]2CCC[C@@](O)(c3ccccc3)[C@@H]2C1 (single isomer, unassigned) [Cp-15, (+)-4β-Hydroxy-2-Methyl-4-phenyl-3aα,7aα-octahydroisoindole] was run?
Answer: Its value is 90%.

Same assay, conditions: @30 mpk/po

Question: Which “% Inhibition” value does the source give for O[C@@]1(c2cccc(C(F)(F)F)c2)CCC[C@H]2CN(Cc3ccccc3)C[C@H]21 (relative stereo) [Cp-18] here?
Answer: The value was 71%.

Question: How did the “% Inhibition” value turn out when COc1ccc([C@]2(O)CCC[C@H]3CN(C)C[C@H]32)cc1 (relative stereo) [Cp-3] was run?
Answer: Its value is 46-93%.

Same assay, conditions: @30 mpk/sc

Question: How did the “% Inhibition” value turn out when COc1cccc([C@]2(O)CCC[C@H]3CN(Cc4ccccc4)C[C@H]32)c1 (relative stereo) [Cp-13] was run?
Answer: The value was 75%.

Same assay, conditions: Mus musculus, 0.5 h; po; 5.5 mg/kg i.p. acetylcholine bromide 30 minutes after drug; read-out: ED50 (dose which would produce 50% analgesia)

Question: Which ED50 does the source give for CN1C[C@@H]2CCC[C@@](O)(c3cccc(F)c3)[C@@H]2C1 (relative stereo) [Cp-7] here?
Answer: The ED50 was 5.38 mg/kg.

Question: For CN1C[C@@H]2CCC[C@@](O)(c3cccnc3)[C@@H]2C1 (relative stereo) [Cp-6], which ED50 is on record?
Answer: Its ED50 is 30.4 mg/kg.

Question: Which ED50 does the source give for CN1C[C@@H]2CCC[C@@](O)(c3ccccc3)[C@@H]2C1 (relative stereo) [Cp-16] here?
Answer: The ED50 was 3.9 mg/kg.

Question: Which ED50 does the source give for CN1C[C@@H]2CCC[C@@](O)(c3cccc(C(F)(F)F)c3)[C@@H]2C1 (relative stereo) [Cp-8] here?
Answer: The ED50 was 2.08 mg/kg.

Question: With CN1C[C@@H]2CCC[C@@](O)(c3cccs3)[C@@H]2C1 (relative stereo) [Cp-1] as the compound, how does the ED50 read?
Answer: Its ED50 is 7.3 mg/kg.

Question: With CN1C[C@@H]2CCC[C@@](O)(c3ccc(F)cc3)[C@@H]2C1 (relative stereo) [Cp-4] as the compound, how does the ED50 read?
Answer: The ED50 was 0.76 mg/kg.

Question: CN1C[C@@H]2CCC[C@@](O)(c3ccc(Cl)cc3Cl)[C@@H]2C1 (relative stereo) [Cp-11] was tested. Which ED50 did it give?
Answer: Its ED50 is 1.36 mg/kg.

Question: For CN1C[C@@H]2CCC[C@@](O)(c3cccc4ccccc34)[C@@H]2C1 (relative stereo) [Cp-5], which ED50 is on record?
Answer: The ED50 was 16.6 mg/kg.

Question: CN1C[C@@H]2CCC[C@@](O)(c3ccccn3)[C@@H]2C1 (relative stereo) [Cp-9] was tested. Which ED50 did it give?
Answer: The ED50 was 15.4 mg/kg.

Question: O[C@@]1(c2ccc(C(F)(F)F)cc2)CCC[C@H]2CN(Cc3ccccc3)C[C@H]21 (relative stereo) [Cp-20] was tested. Which ED50 did it give?
Answer: Its ED50 is 10.7 mg/kg.

Question: For O[C@@]1(c2cccc(C(F)(F)F)c2)CCC[C@H]2CNC[C@H]21 (relative stereo) [Cp-19], which ED50 is on record?
Answer: The ED50 was 4.2 mg/kg.
